Experimental findings from US9566265B2, “Carbazole compounds and therapeutic uses of the compounds” (Incuron, LLC, priority 2008, dated 2017) are described below.

Like-named read-outs stand apart in the source and are kept apart here.

The test system of one experiment is p53. Briefly: p53 activation assay, p53 responsive luciferase reporter cell line. The class given is cell-based, human. The settings on record: for p53 activation, active or inactive carbazole: structural analysis, FIGS. 6 and 7. Here is the method: The potency of a present carbazole compound is determined by measuring an ability of the compound to inhibit NF-κB activity or to activate p53. […] Theoretically, such assays of the dose-response effect of activator compounds can be described as a sigmoidal curve expressing a degree of activation as a function of concentration. The curve also theoretically passes through a point at which the concentration is sufficient to increase activity to a level that is 50% that of the difference between a baseline and the maximal activity in the assay. […] Determination of an EC50 value is made using conventional biochemical (acellular) assay techniques or cell-based assay techniques.
The potency of a carbazole compound is determined by measuring an ability of the compound to activate p53.
The p53 activation assay for determination of the EC50 value was performed as follows:
HT1080-L (human fibrosarcoma cells with ConALuc reporter)
RCC45ConALuc (human renal cell carcinoma cell line with ConALuc reporter)
1. Two types of standard cells were used, either HT1080-L or RCC45ConALuc cells. Both cell lines stably express a p53 responsive luciferase reporter construct.
2. HT1080-L cells were grown in DMEM medium containing 10% FBS. RCC45ConALuc cells were grown in RPMI medium containing 10% FBS (Pen/Strep can be added to a final concentration of 1%, if desired). Both cell lines were grown in a humidified incubator at 37° C. with 5% CO2. For normal culturing, both cell lines were split using 1× trypsin-EDTA at a ratio of 1:20 for HT1080-L and 1:5 for RCC45ConALuc cells every 3-4 days (when cells are 80-90% confluent).
3. A day before the experiment, the cells are trypsinized for about 5 minutes in 1× tripsin/EDTA solution in 37° C. incubator and plated in 96 well plates. HT1080-L cells were seeded at a density of 1×10^4/well in standard DMEM medium in a volume of 50 μl. RCC45ConALuc were seeded at a density of 2×10^4/well in the volume of 50 uL in standard RPMI medium.
4. The next day, various carbazole compounds were prepared by dilution of stock solutions in standard DMEM medium such that the cells were treated with the final chemical concentrations in Table 1 below. Stock solutions were made up in DMSO. Typically, chemicals were made up as 20 mM stock solutions.
5. Each tested compound used two rows of a 96-well plate, thus four compounds (e.g., W, X, Y, Z) were tested in one plate simultaneously. In addition to test compounds, each plate included positive and negative controls. As positive control, 9aa was used at a dose of 3 μM. As a negative control, DMSO was used in final concentration 0.1%.
1. Dilutions of chemicals added to the plate were made up as 2× concentrations in standard DMEM and added to corresponding well in a volume of 50 μl.
2. Chemicals were diluted in standard DMEM by two time serial dilutions starting from 40 μM (2× of highest concentration, e.g., 20 μM). For one cell line, the minimum volume was 125 μL of 2× working solution of chemical of each concentration in standard DMEM.
4. Sixteen hours following compound addition, all wells with the highest concentrations of compounds are checked microscopically for the presence of toxic effect, because death of cells caused by compounds may not allow detecting luciferase activity. If cytotoxocity is evident, other doses of the same compounds were checked for the presence of toxicity. The lowest dose causing toxic effect was recorded.
5. After microscopic examination, 15 μl of Bright Glo luciferase assay system were added to each well and after 5 min incubation at RT, the plates were read on a 96 well plate luminometer with a measurement time of 0.1 sec. A shaking step was included before measurement.
6. The folds of luciferase activation for each concentration of each chemical were calculated by dividing the detected luciferase activity at each chemical concentration by the average of the luciferase activity for the DMSO control on the same plate.

The next experiment deals with Bacillus subtilis. The experiment is described as follows: antibacterial cytotoxicity assay, gram(+) bacteria (OD600). The format is cell-based. As to conditions: B. subtilis, 48 hours, over a range of potencies; FIG. 13B. As to the method: In vitro test to evaluate the effect of carbazole compounds on gram(-) and gram(+) bacteria. Two days prior to the start of the cytotoxicity assay, inoculate DH5-α and B. subtilis into 1 ml of corresponding media from glycerol stocks. Allow to grow during the course of the day at 37° C. with shaking. Streak each bacteria on the appropriate agar plates using a sterile inoculation loop and allow to grow overnight at 37° C. in the bacteria incubator. Using a sterile inoculation loop, pick a single colony of bacteria and inoculate 5 ml of the corresponding media in a 14 ml snap cap tube. Grow overnight ( 16 h) at 37° C. with shaking. […] Dilute 5 ml cultures of DH5-α and B. subtilis to an OD600 nm of 0.002, which corresponds to about 2×10^6 cells/ml in a volume sufficient for the experiment (dependent on the number of plates). Plate out 50 μl into each well of X 96-well plates (X=# plates needed for a given experiment). […] Chemicals for testing are prepared by dilution of stock solutions in LB Broth or Nutrient Broth for DH5-α and B. subtilis studies, respectively. Cells are treated with the final chemical concentrations presented in the scheme below (Table 2). Stock solutions are made up in DMSO. […] However, this concentration is dependent on the solubility of a given chemical and actual stock concentrations must be noted at time of experiment. Each library chemical to be tested requires 2 rows of a 96-well plate, thus 4 chemicals ([…]) can be tested in one plate simultaneously. In addition to test chemicals, each plate should include positive and negative controls. As positive control, ampicillin is used at 100 μg/ml. […] Dilutions of chemicals to be added to the plate are made up as 2× concentrations in appropriate bacteria media and added to corresponding wells in a volume of 50 μl. […] This process is repeated until all 10 2× doses are prepared. […] Following the addition of carbazole compounds to 96-well plates containing bacteria, plates are transferred to the 37° C. bacteria incubator for 48 hours. After the incubation, the OD600 mm for each well of the 96-well plates will be measured. […] The % DMSO control is plotted vs compound concentration to generate sigmoid shaped curves. After three runs are complete, the raw data for all three runs is used for IC50 calculations.

In a further experiment the test system is HB 101 E. coli. Briefly: antibacterial cytotoxicity assay, gram(−) bacteria (OD600). The class given is cell-based. As to conditions: 48 hours, over a range of potencies, FIG. 13A.
The subject of experiment [1] is Plasmodium falciparum (strain D10). The experiment is described as follows: Plasmodium falciparum in vitro culture, infected erythrocytes. The format is cell-based. The settings on record: tested at 29, 57, 143 nM or 143 nM only; FIG. 12. As to the method:
In particular, the effect of carbazole compounds on the malaria parasite was tested by culturing Plasmodium falciparum (strain D10) in vitro in the presence or absence of test compounds.
In each experiment, 1000 erythrocytes were assessed microscopically to determine the number of infected cells.

For experiment [2], the system named is Caki1 human renal cell carcinoma cells. Briefly: Caki1 renal cell carcinoma xenograft efficacy test. The settings on record: Day 24 (end of treatment); oral gavage 5 day on/2 day off; Example 7 30, Example 15 5, Example 13 25, Sunitinib 40 mg/kg.
Procedure: In an efficacy test using these three compounds, athymic nude mice were inoculated subcutaneously with a suspension of Caki1 human renal cell carcinoma cells into both rear flanks. When at least one tumor in a mouse reached 20-50 mm^3, treatment was commenced. […] As a positive control, one group was treated with 40 mg/kg Sunitinib, an approved drug for the treatment of renal cell carcinoma. Treatment was given for 4 weeks on a 5 day on/2 day off schedule. After treatment was completed, mice were monitored for an additional 4 weeks to determine how quickly tumor growth returned to normal.
A further experiment deals with Bloodstream T. brucei. The experiment is described as follows: T. brucei bloodstream form in vitro killing. The class given is cell-based, Trypanosoma brucei. As to conditions: Trypanosoma brucei, read-out: IC50 (concentration that killed 50% of the parasites); bloodstream stage, 48 hrs of culture. Here is the method:
Preliminary T. brucei inactivation experiments were performed in vitro. The life cycle of T. brucei involves a “procyclic” developmental stage in a tsetse fly, and a “bloodstream” form in humans. All studies were performed with the bloodstream stage of the parasite, because it is the disease-causing developmental stage.
Suramin, a conventional anti-HAT drug, was used as a positive control.
Bloodstream T. brucei was seeded (3×10^3 cells/mL) in 24-well (500 uL of the media per well) plate. […] Control cultures received equal volumes of DMSO.

The mark [3] stands for this setting: Homo sapiens, 16 h, HT1080-L or RCC45ConALuc reporter cells, 16 h, read-out: EC50 value (p53 activation).
Where [4] appears, read: HT1080-L or RCC45ConALuc reporter cells, 16 h, read-out: EC50 value (p53 activation).
Where [5] appears, read: Table 3, test compounds of the malaria experiment.
Setting [6] is: Homo sapiens, HT1080-L or RCC45ConALuc reporter cells, 16 h, read-out: EC50 value (p53 activation).

Broadly, the EC50 is the concentration needed to bring the measured effect to its halfway point. Consider `CCN(CC)CCn1c2ccc(C(C)=O)cc2c2cc(C(C)=O)ccc21` [Compound 3a], for which the concentration giving a half-maximal response (EC50) in the experiment on p53 (setting [3]) turned out to be 0.29 µM. `CC(=O)c1ccc2c(c1)c1cc(C(C)=O)ccc1n2CCCN(C)C` [Compound 3b]: the 50% effective concentration (EC50) in the experiment on p53 (setting [3]) stood at 0.49 µM. On the same count and under the same terms, under `CC(=O)c1ccc2c(c1)c1cc(C(C)=O)ccc1n2CCC1CCCN1C` (centres unmarked) [Compound 3e] stands 0.78 µM; under `CCC(=O)c1ccc2c(c1)c1cc(C(=O)CC)ccc1n2CCCN(C)C` [Compound 7d], 0.64 µM. As to `CC(=O)c1ccc2c(c1)c1c3c(ccc1n2CCC1CCCN1C)C(=O)CC3` (centres unmarked) [Compound 18c-1], in the experiment with p53 (setting [3]), the concentration giving a half-maximal response (EC50) is 0.08 µM. For the same compound, the “antibacterial effect” value in the experiment with Bacillus subtilis and with HB 101 E. coli was “antibacterial effect” each time. `CC(=O)c1ccc2c(c1)c1c3c(ccc1n2CC[C@@H]1CCCN1C)C(=O)CC3` [Compound 18c-2]: in the experiment with p53 (setting [3]), the EC50 was 0.1 µM. On the same count and under the same terms, under `CCN(CC)CCn1c2ccc(C(C)=O)cc2c2cc(C(C)=O)c(O)cc21` [Compound 19a] stands 0.4 µM; under `CC(=O)c1cc2c3c4c(ccc3n(CCCN(C)C)c2cc1O)C(=O)N(C)C4` [Compound 19e], 0.07 µM.

Consider `CCN(CC)CCn1c2ccccc2c2cc(C(C)=O)c(O)cc21` [Compound 22, 3-Acetyl-2-hydroxy-9-N,N-diethylaminoethylcarbazole], for which the half-maximal effective concentration (EC50) in the experiment on p53 (setting [4]) came to 0.53 µM. Turning to `CN(C)CCCN(c1ccccc1)c1ccc2c(c1)CCC2=O` [Compound 200, reference compound], the “p53 activation, active or inactive carbazole” value in the experiment on p53 is “inactive”. `CCN(CC)CCn1c2ccc(C(C)=O)cc2c2cc(C(C)=O)ncc21` [Compound 300, reference compound]: the “p53 activation, active or inactive carbazole” value with p53 is on record as “active”. With `CCN(CC)CCn1c2ccccc2c2cc(C(C)=O)ncc21.Cl` [Compound 400, reference compound], the “anti-malarial activity, parasitemia reduction” value in experiment [1] is given as “no parasitemia reduction”. In the experiment on p53 (setting [5]), the “EC50, μM (p53 activation assay)” value is listed as “Inactive”. As for `CCCCCn1c2ccc(C(C)=O)cc2c2c3c(ccc21)C(=O)CC3` [Compound 500, reference compound], the “anti-malarial activity, parasitemia reduction” value in experiment [1] is on record as “no parasitemia reduction”. Besides, in the experiment with p53 (setting [5]), the “EC50, μM (p53 activation assay)” value is listed as “Inactive”. For `CC(=O)c1cc2c3c4c(ccc3n(CCCN(C)C)c2cc1O)C(=O)CC4` [Example 4, 9-Acetyl-6-[3-(dimethylamino)propyl]-8-hydroxy-1,6-dihydrocyclopenta[c]carbazol-3(2H)-one], the EC50 in the experiment on p53 (Homo sapiens, 16 h, read-out: EC50 value (p53 activation, μM)) amounted to 0.07 µM. For the same compound, the “antibacterial effect” value with Bacillus subtilis and in the experiment with HB 101 E. coli was “antibacterial effect” in each case. For `CCCNCCCn1c2ccc(C(C)=O)cc2c2c3c(ccc21)C(=O)CC3` [Example 6, 9-Acetyl-6-[3-(propylamino)propyl]-1,6-dihydrocyclopenta[c]carbazol-3(2H)-one], the EC50 in the experiment with p53 (setting [4]) was 0.24 µM. As to `CC(=O)c1cc2c3cc(C(C)=O)c(O)cc3n(CCCN(C)C)c2cc1O` [Example 12], the “antibacterial effect” value with Bacillus subtilis and with HB 101 E. coli was “antibacterial effect” each time.

In the case of `CCCNCCCn1c2ccc3c(c2c2c4c(ccc21)C(=O)CC4)CCC3=O` [Example 14], in the experiment on p53 (setting [3]), the EC50 is 0.05 µM. Take `CN(C)CCCn1c2ccc([N+](=O)[O-])cc2c2cc([N+](=O)[O-])ccc21` [Example 21]: the concentration giving a half-maximal response (EC50) in the experiment with p53 (setting [4]) was found to be 0.83 µM.

On to `CCN(CC)CCCn1c2ccc([N+](=O)[O-])cc2c2cc([N+](=O)[O-])ccc21` [Example 23], for which the EC50 in the experiment on p53 (setting [6]) amounted to 0.88 µM. On to `O=[N+]([O-])c1ccc2c(c1)c1cc([N+](=O)[O-])ccc1n2CCCN1CCCC1` [Example 24], for which the concentration for a half-maximal effect (EC50) in the experiment with p53 (setting [6]) worked out at 0.78 µM. Consider `CNCCCn1c2ccc([N+](=O)[O-])cc2c2cc([N+](=O)[O-])ccc21` [Example 25], for which the EC50 with p53 (setting [6]) was found to be 0.88 µM. On to `CCN(CC)CCn1c2ccc(C(=O)NC)cc2c2cc(C(=O)NC)ccc21` [Example 27], for which the EC50 in the experiment with p53 (setting [3]) stood at 0.54 µM. `CCN(CC)CCCC(C)Nc1c2ccc(Cl)cc2nc2ccc(OC)cc12` (centres unmarked) [Quinacrine, reference compound]: the concentration for a half-maximal effect (EC50) in the experiment on p53 (Homo sapiens, Table 3, test compounds of the malaria experiment, read-out: EC50, μM (p53 activation assay)) was around 5 µM.

`CCN(CC)CCNC(=O)c1c(C)[nH]c(/C=C2\C(=O)Nc3ccc(F)cc32)c1C` [Sunitinib, reference compound]: the “tumor growth inhibition compared to the vehicle control” value in experiment [2] was 42%.

Regarding `Cc1ccc(C(=O)Nc2ccc(S(=O)(=O)O)c3cc(S(=O)(=O)O)cc(S(=O)(=O)O)c23)cc1NC(=O)c1cccc(NC(=O)Nc2cccc(C(=O)Nc3cc(C(=O)Nc4ccc(S(=O)(=O)O)c5cc(S(=O)(=O)O)cc(S(=O)(=O)O)c45)ccc3C)c2)c1` [Suramin, reference compound], the IC50 in the experiment on Bloodstream T. brucei is above 300 nM.
